From patent US9259412B2, “Composition of the treatment of vascular diseases or KCa3.1 channel-mediated diseases comprising modafinil or derivatives thereof” (EWHA UNIVERSITY—INDUSTRY COLLABORATION FOUNDATION, priority 2011, dated 2016)
Read-outs that look alike come from different tables or passages of the source.

How the values were obtained:
[1] = tested on: mouse aortic smooth muscle cells; assay: Measurement of intracellular cAMP in cultured mouse aortic smooth muscle cells; format: cell-based
Description: Single smooth muscle cells (SMCs) were used to examine the effect of modafinil on vascular diseases. Single smooth muscle cells were separated from an aorta of the mouse. Three to four-month-old mice of either gender were anaesthetized with pentobarbital sodium (50 mg/kg weight) and sacrificed by cervical dislocation. Thoracic aortas were dissected out in Ca2+-free external solution and dissociated by incubation in papain (1 mg/ml) for 5 min followed by incubation in collagenase (1.5 mg/ml), bovine serum albumin (BSA; 2 mg/ml) and dithiothreitol (1 mg/ml) for 10 to 20 min in Ca2+-free external solution at 37° C. Segments were then transferred to fresh Ca2+-free external solution, and single mouse SMCs were dispersed with gentle agitation using a glass pipette. Mouse aortic SMCs were cultivated in Dulbecco's Modified Eagle Medium (DMEM) containing 10% fetal bovine serum (FBS) plus 1% minimum essential amino acids (Life Technologies). Cell culture was maintained at 37° C. in fully humidified air with 5% CO2.
Cultured mouse aortic SMCs were incubated with modafinil for 3 minutes within incomplete media. The concentration of cAMP (adenosine 3″,5″-cyclic monophosphate) from lysate was determined in each sample using a Parameter cAMP assay kit (R&D Systems) according to the manufacturer's instructions.

NIH-3T3 fibroblasts = assay: Measurement of intracellular cAMP in NIH-3T3 fibroblasts; format: cell-based; settings: for intracellular cAMP concentration: NIH-3T3 cells
Description: Meanwhile, NIH-3T3 fibroblasts were used to verify the effect on KCa3.1 mediated diseases. NIH-3T3 fibroblasts (CRL-2795; American Type Culture Collection, VA, USA) were maintained in the following manner. Cells were cultivated as a monolayer in Dulbecco's Modified Eagle Medium (DMEM, Hyclone, Logan, Utah, USA) added with 10% fetal bovine serum (FBS), 100 units/ml penicillin, and 100 μg/ml streptomycin. All cells were maintained at 37° C. in humidified condition under 5% CO2. Media were changed twice weekly, and cultures were passaged at a dilution of 1:5 weekly. The medium was then removed and replaced with fresh medium, and the cells were maintained for the time periods indicated.
NIH-3T3 fibroblasts were incubated with modafinil for 3 minutes within incomplete media. The concentration of cAMP (adenosine 3′,5′-cyclic monophosphate) from lysate was determined in each sample using a Parameter cAMP assay kit (R&D systems) according to the manufacturer's instructions.

mouse aortic rings = assay: Contraction measurement on isolated mouse aortic rings; settings: mouse aortic rings contracted by norepinephrine (0.1 μM), Hill's equation; read-out: IC50 of relaxation of contracted rings
Description: Experimental animals were used to examine the effect of modafinil on relaxation of contracted blood vessels. Five to six-month-old mice or rats were anaesthetized by an intraperitoneal injection of pentobarbital sodium (50 mg/kg, weight). The mouse thoracic aorta and rat pulmonary artery were dissected out and cut into rings of about 3 mm. Mechanical responses were recorded from the ring segments using a home-made myograph. Each ring was threaded with two strands of tungsten wire (120 μm in diameter). One wire was anchored in the organ bath chamber (1 ml) and the other was connected to a mechano-transducer (Grass, FT-03) mounted on a three dimensional manipulator. The muscle chamber was perfused at a flow rate of 2.5 ml/minute with oxygenated (95% O2/5% CO2) Krebs/Ringer bicarbonate solution with a peristaltic pump. The composition (unit: mM) of the Krebs solution was as follows: NaCl 118.3, KCl 4.7, MgCl2 1.2, KH2PO4 1.22, CaCl2 2.5, NaHCO3 25.0, glucose 11.1, pH 7.4. Endothelial cells were removed by gentle rubbing with a cotton ball and NO production in endothelial cells was inhibited by pretreating with NG-nitro-1-arginine methyl ester (l-NAME). Rings were pre-contracted with 0.1 μM norepinephrine or 30 mM K+. […]

[2] = tested on: rat pulmonary arterial rings; assay: Contraction measurement on isolated rat pulmonary arterial rings; settings: for IC50: Rattus norvegicus; for effect on vascular smooth muscle contraction: norepinephrine (0.1 μM)-induced contraction of rat pulmonary artery
Description: Experimental animals were used to examine the effect of modafinil on relaxation of contracted blood vessels. Five to six-month-old mice or rats were anaesthetized by an intraperitoneal injection of pentobarbital sodium (50 mg/kg, weight). The mouse thoracic aorta and rat pulmonary artery were dissected out and cut into rings of about 3 mm. Mechanical responses were recorded from the ring segments using a home-made myograph. Each ring was threaded with two strands of tungsten wire (120 μm in diameter). One wire was anchored in the organ bath chamber (1 ml) and the other was connected to a mechano-transducer (Grass, FT-03) mounted on a three dimensional manipulator. The muscle chamber was perfused at a flow rate of 2.5 ml/minute with oxygenated (95% O2/5% CO2) Krebs/Ringer bicarbonate solution with a peristaltic pump. The composition (unit: mM) of the Krebs solution was as follows: NaCl 118.3, KCl 4.7, MgCl2 1.2, KH2PO4 1.22, CaCl2 2.5, NaHCO3 25.0, glucose 11.1, pH 7.4. Endothelial cells were removed by gentle rubbing with a cotton ball and NO production in endothelial cells was inhibited by pretreating with NG-nitro-1-arginine methyl ester (l-NAME). Rings were pre-contracted with 0.1 μM norepinephrine or 30 mM K+.
Since increase in intracellular cAMP in vascular smooth muscle cells activates PKA and phosphorylates myosin light chain active enzyme to relax vascular smooth muscles, the present inventors examined whether modafinil relaxes vascular smooth muscles. Mouse aortic rings or rat pulmonary arterial rings were contracted by norepinephrine (0.1 μM). When the contraction reached a steady-state, modafinil was applied. With the application, the contracted mouse aortic ring (FIGS. 3A and 3B) or rat pulmonary arterial ring (FIGS. 3C and 3D) was relaxed in a concentration-dependent manner. […] When rat pulmonary artery was contracted by K+ (30 mM) of a high concentration, modafinil relaxed the contracted artery in a concentration-dependent manner (FIG. 3E). When the concentration-dependent reaction of rat pulmonary artery was fitted to Hill's equation, the IC50 of modafinil was determined to be 10.5±0.4 nM (FIG. 3F).

KCa3.1 channel [3] = target: T1, KCa3.1 channel (Mus musculus, UniProt O89109); assay: Whole-cell patch-clamp of KCa3.1 currents in NIH-3T3 fibroblasts; format: cell-based
T1 construct: cells which were not exposed to modafinil or forskolin were immunoblotted by anti-KCa3.1 antibody to confirm the presence of KCa3.1 channels; endogenous in cells; host or cells: NIH-3T3 fibroblasts
T1 sequence (O89109 whole entry): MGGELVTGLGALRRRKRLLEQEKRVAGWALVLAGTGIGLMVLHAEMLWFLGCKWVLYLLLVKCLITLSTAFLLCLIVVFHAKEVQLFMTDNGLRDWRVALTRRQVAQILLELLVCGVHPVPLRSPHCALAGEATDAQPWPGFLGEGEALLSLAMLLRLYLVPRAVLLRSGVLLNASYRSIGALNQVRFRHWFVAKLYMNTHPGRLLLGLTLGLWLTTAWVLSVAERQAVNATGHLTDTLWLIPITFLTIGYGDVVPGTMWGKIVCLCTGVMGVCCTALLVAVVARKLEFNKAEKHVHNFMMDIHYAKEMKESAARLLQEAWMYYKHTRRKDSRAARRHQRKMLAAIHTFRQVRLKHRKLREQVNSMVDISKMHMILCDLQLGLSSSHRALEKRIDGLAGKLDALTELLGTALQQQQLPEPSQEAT
Description: (§1) Electrophysiological analysis was performed according to the methods reported by Nilius and the like [Nilius et al., 1993, Pflugers Arch., 424(3-4): 285-293]. The patch-clamp technique was used in the whole-cell and excised patch configurations at room temperature. Whole-cell currents were measured using ruptured patches. Currents were monitored using an appropriate amplifier (EPC-10, HEKA, Lambrecht, Germany). In the whole cell experiment, we applied a voltage ramp from −100 mV to +100 mV with a 10 sec interval (650 ms duration) or voltage steps from a holding potential of −60 mV to potentials ranging from −100 mV to +100 mV in 20 mV increments (1 sec duration) with a 5 sec interval. Currents were recorded at a sampling rate of 1-4 kHz. Inside-out voltage clamps were performed using glass electrodes of tip resistance of 8-10 MΩ. Data were filtered at 1 KHz and stored in a computer for analysis using standard software (Axoscope 9.0, Axon Instruments, Foster City, Calif., USA). For some experiments, channel activity was expressed as the product of the number of channels times open probability (NPo), where NPo=Σ[(open time×number of open channels)/Total time of record].
(§2) The standard external solution contains the following substance within NaOH solution of pH 7.4; 150 mM NaCl, 6 mM KCl, 1.5 mM CaCl2, 1 mM MgCl2, 10 mM HEPES, and 10 mM glucoses. The osmolarity of this solution, as determined by an osmometer (Fiske, Norwood, Mass., USA), was 320±5 mOsm. In the inside-out mode, the bath solution contains 150 mM KCl, 0.5 mM MgCl2, 10 mM HEPES within KOH solution of pH 7.2, and the pipette solution contains 150 mM NaCl, 6 mM KCl, 1 mM MgCl2, 10 mM HEPES, 10 mM glucoses, 5 mM EGTA within NaOH solution of pH 7.4. Free Ca2+ concentrations in the pipette or bath solutions were adjusted to 1 μM by adding appropriate amounts of Ca2+ (calculated using CaBuf software; G. Droogmans, Leuven, ftp://ftp.cc.kuleuven.ac.be/pub/droogmans/cabuf.zip) in the presence of 5 mM EGTA.
KCa3.1 currents were activated by adding 1-ethyl-2-benzimidazolinone (1-EBIO, 100 μM) to the external solution and loading 1 μM Ca2+ via patch pipette in whole-cell clamped NIH-3T3 fibroblasts.

KCa3.1 channel [4] = assay: Western blotting of KCa3.1 channel phosphorylation in NIH-3T3 cells; format: cell-based
Description: After the treatment, cells were washed once in ice-cold phosphate buffered saline (PBS) and lysed in protein extraction buffer containing protease inhibitor cocktail. Protein concentration in the supernatant was determined by Bradford protein assay. For Western blot analysis, 30 μg of protein was subjected to SDS-PAGE, and proteins were then transferred to a nitrocellulose membrane. Membranes were blocked for 1 hour with TBST (10 mM Tris-HCl, 150 mM NaCl, and 1% (v/v) Tween-20, pH 7.6) containing 5% bovine serum albumin (BSA) at room temperature. The blots were incubated for 3 hours with rabbit anti-P-PKA substrate antibody followed by incubation with horseradish peroxidase-conjugated secondary antibodies for 1 hour. Bands were visualized by chemiluminescence. Data collection and processing were performed using a luminescent image analyzer LAS-3000 and IMAGE GAUSE software (Fuji Film, Japan).

KCa3.1 channel [5] = target: T1, KCa3.1 channel; assay: Inside-out patch single channel recording of KCa3.1 channels in NIH-3T3 cells; format: cell-based
Description: as §1, §2
In inside-out patches, KCa3.1 channels were activated by clamping Ca2+ concentration of the bath solution to 1 μM and applying 1-EBIO. The holding potential was then changed from −70 to 50 mV (FIG. 7). The single channel currents were inhibited by TRAM-34. […] The present inventors then applied modafinil (30 or 100 nM) to the bath solution. […] The open probability was also not changed by modafinil (FIGS. 7A and 7B). A linear fit of the data between 50 to −70 mV yielded a slope conductance of 38.1 pS in the control group and 39.4 pS in the presence group of modafinil (FIG. 7C).

[6] = currents activated by 1 μM Ca2+ and 1-EBIO 100 μM
[7] = modafinil 30 or 100 nM in bath solution

SMILES: NC(=O)C[S+]([O-])C(c1ccccc1)c1ccccc1 (centres unmarked) [modafinil, 2-(benzhydrylsulfinyl) acetamide]
- intracellular cAMP concentration ([1]; cultured mouse aortic SMCs exposed for 3 minutes): increased in a concentration-dependent manner
- concentration from which intracellular cAMP concentration significantly increased ([1]; primary cultured mouse aortic smooth muscle cells, 3 min, p<0.01): 10 nM
- concentration of cAMP compared to treating the cell with 10 μM of forskolin (NIH-3T3 fibroblasts; NIH-3T3 cell, 1 μM of modafinil): 2 times
- intracellular cAMP concentration (NIH-3T3 fibroblasts): increased in a concentration-dependent manner
- IC50 (mouse aortic rings): 0.0119 ± 0.0003 µM
- IC50 ([2]; read-out: IC50 of relaxation of contracted artery): 0.0105 ± 0.0004 µM
- IC50 ([2]; read-out: IC50 of relaxation of contracted rings): 0.0101 ± 0.0001 µM
- IC50 (KCa3.1 channel [3]): 0.0068 ± 0.0007 µM
- effect on KCa3.1 currents in cells pretreated by H89 (KCa3.1 channel [3]; H89 (10 μM) pretreatment): not inhibited
- effect on KCa3.1 currents with PKI14-22 in the pipette solution (KCa3.1 channel [3]; PKI14-22 (10 μM) in pipette solution): not affected
- concentration for maximal inhibition of KCa3.1 currents (KCa3.1 channel [3]; [6]): 100.0 ± 5.7 nM
- KCa3.1 channel phosphorylation (KCa3.1 channel [4]; NIH-3T3 cells, treatment for 5 min): increased KCa3.1 phosphorylation in a concentration-dependent manner
- slope conductance of single KCa3.1 channel (KCa3.1 channel [5]; linear fit between 50 to -70 mV, in the presence of modafinil): 39.4 pS
- open probability of KCa3.1 channels (KCa3.1 channel [5]; [7]): not changed
- single channel activity of KCa3.1 channels (KCa3.1 channel [5]; [7]): did not change

SMILES: CNC(=O)C[S+]([O-])C(c1ccccc1)c1ccccc1 (centres unmarked) [M015, 2-(benzhydrylsulfinyl)-N-methylacetamide]
- intracellular cAMP concentration (NIH-3T3 fibroblasts): increased the intracellular cAMP concentration in a concentration-dependent manner
- effect on vascular smooth muscle contraction [2]: relaxed
- effect on KCa3.1 currents (KCa3.1 channel [3]; [6]): inhibited

SMILES: Clc1ccccc1C(c1ccccc1)(c1ccccc1)n1cccn1 [TRAM-34]
- effect on KCa3.1 currents (KCa3.1 channel [3]; [6]): inhibited
- effect on single channel currents (KCa3.1 channel [5]; activated by 1 μM Ca2+ and 1-EBIO): inhibited

SMILES: O=C(C[S+]([O-])C(c1ccccc1)c1ccccc1)NCC1CCCO1 (centres unmarked) [M020, 2-(benzhydrylsulfinyl)-N-((tetrahydrofuran-2-yl)methyl) acetamide]
- intracellular cAMP concentration (NIH-3T3 fibroblasts): increased the intracellular cAMP concentration in a concentration-dependent manner
- effect on vascular smooth muscle contraction [2]: relaxed
- effect on KCa3.1 currents (KCa3.1 channel [3]; [6]): inhibited

SMILES: CC#CCC(C)[C@H](O)/C=C/[C@@H]1[C@H]2C/C(=C/CCCC(=O)O)C[C@H]2C[C@H]1O (some centres unmarked) [iloprost]
- intracellular cAMP concentration (NIH-3T3 fibroblasts): increased cAMP concentration
- IC50 ([2]; read-out: IC50 of inhibition of rat pulmonary arterial contraction): 0.0394 ± 0.0051 µM

SMILES: O=C(CSC(c1ccccc1)c1ccccc1)Nc1ccccc1 [M008, 2-(benzhydrylthio)-N-phenylacetamide]
- intracellular cAMP concentration (NIH-3T3 fibroblasts): increased the intracellular cAMP concentration in a concentration-dependent manner
- effect on vascular smooth muscle contraction [2]: relaxed
- effect on KCa3.1 currents (KCa3.1 channel [3]; [6]): inhibited

SMILES: O=S(=O)(NCCNC/C=C/c1ccc(Br)cc1)c1cccc2cnccc12 [H89]
- effect on channel phosphorylation in the resting state and by forskolin (KCa3.1 channel [4]; NIH-3T3 cells pretreated with PKA inhibitor for 30 min): completely abolished

SMILES: O=C(CSC(c1ccccc1)c1ccccc1)NCC1CCCO1 (centres unmarked) [M006, 2-(benzhydrylthio)-N-((tetrahydrofuran-2-yl)methyl)acetamide]
- intracellular cAMP concentration (NIH-3T3 fibroblasts): increased the intracellular cAMP concentration in a concentration-dependent manner
- effect on vascular smooth muscle contraction [2]: relaxed
- effect on KCa3.1 currents (KCa3.1 channel [3]; [6]): inhibited
